Assay results: US12201633B2, “Compounds and methods for treatment of visceral pain” (Arena Pharmaceuticals, Inc., priority 2017, dated 2025)

Columns and labels:
[1] = tested on: acute and chronic pain from chemical, mechanical, and thermal pain stimuli; conditions: animal studies; cited from earlier work
human CB2 receptor [2] = molecular target: T1, human CB2 receptor (Homo sapiens, UniProt P34972); test: PathHunter β-arrestin assay, CB2
hCB1 [3] = molecular target: T2, hCB1 (Homo sapiens, UniProt P21554); test: PathHunter β-arrestin assay, CB1
T2 sequence (P21554 whole entry): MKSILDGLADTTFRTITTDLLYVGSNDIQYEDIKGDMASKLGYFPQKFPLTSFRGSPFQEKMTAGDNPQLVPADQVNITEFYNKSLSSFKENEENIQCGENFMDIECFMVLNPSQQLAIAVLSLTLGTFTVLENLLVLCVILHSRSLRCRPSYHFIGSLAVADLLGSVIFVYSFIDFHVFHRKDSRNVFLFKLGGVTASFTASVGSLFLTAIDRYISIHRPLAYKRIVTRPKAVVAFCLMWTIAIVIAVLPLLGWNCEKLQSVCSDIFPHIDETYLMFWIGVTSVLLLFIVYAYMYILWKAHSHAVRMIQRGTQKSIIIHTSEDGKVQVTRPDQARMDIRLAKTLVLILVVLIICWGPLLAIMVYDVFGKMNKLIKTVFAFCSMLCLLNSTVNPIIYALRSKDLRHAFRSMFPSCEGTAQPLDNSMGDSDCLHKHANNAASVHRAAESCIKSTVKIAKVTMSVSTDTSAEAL

[4] = tested on: rats following ligation of spinal nerves; conditions: cited from earlier work
human CB2 receptor [5] = molecular target: T1, human CB2 receptor; test: HTRF assay for direct cAMP measurement, CB2; assay type: cell-based; parameters: 93-0164 (CHO-K1 EA-Arrestin parental line); host or cells: CHO-K1 EA-Arrestin, clone #61
hCB1 [6] = molecular target: T2, hCB1; test: HTRF assay for direct cAMP measurement, CB1; assay type: cell-based; parameters: 93-0164 (CHO-K1 EA-Arrestin parental line); host or cells: CHO-K1 EA-Arrestin, clone #3
Source text: Compounds were also screened for agonists and inverse agonists of the CB1 receptor (e.g., human CB1 receptor) using HTRF® assay for direct cAMP measurement (Gabriel et al., ASSAY and Drug Development Technologies, 1:291-303, 2003) in recombinant CHO-K1 cells stably transfected with the CB1 receptor. […] An agonist of the CB1 receptor was detected in the HTRF® assay for direct cAMP measurement as a compound which decreased cAMP concentration. An inverse agonist of the CB1 receptor was detected in the HTRF® assay for direct cAMP measurement as a compound which increased cAMP concentration. The HTRF® assay also was used to determine EC50 values for CB1 receptor agonists and inverse agonists.
Principle of the assay: The HTRF® assay kit was purchased from Cisbio-US, Inc. (Bedford, MA; Catalog #62AM4PEC). The HTRF® assay supported by the kit is a competitive immunoassay between endogenous cAMP produced by the CHO-K1 cells and tracer cAMP labeled with the dye d2. The tracer binding is visualized by a monoclonal anti-cAMP antibody labeled with Cryptate. The specific signal (i.e., fluorescence resonance energy transfer, FRET) is inversely proportional to the concentration of unlabeled cAMP in the standard or sample.
The fluorescence ratio of the samples (test compound or compound buffer) was calculated and used to deduce respective cAMP concentrations by reference to the cAMP standard curve. […]

[7] = tested on: male Sprague-Dawley rats, STZ-induced PDPN; test: Streptozotocin-induced painful diabetic peripheral neuropathy (PDPN) model; assay type: in vivo, rat; conditions: 10 mg/kg orally in 0.5% methylcellulose; 1, 4 and 6 hours post-dosing; FIG. 9, FIG. 10
Experimental: Male Sprague-Dawley rats were injected intraperitoneally with 50 mg/kg of streptozotocin (STZ) in sodium citrate buffer. 10% sucrose water was provided ad libitum for the first 48 hours post-STZ followed by regular drinking water. Rats were monitored once weekly for blood glucose levels and body weights. Development of tactile allodynia over time was analyzed using Von Frey filaments and a 50% withdrawal threshold was determined using Dixon's up-down procedure. […] Tactile allodynia was evaluated at 1, 4 and 6 hours post-dosing.

hCB1 [8] = molecular target: T2, hCB1; test: Radioligand binding assay, hCB1; conditions: Table C

T1 sequence (P34972 whole entry): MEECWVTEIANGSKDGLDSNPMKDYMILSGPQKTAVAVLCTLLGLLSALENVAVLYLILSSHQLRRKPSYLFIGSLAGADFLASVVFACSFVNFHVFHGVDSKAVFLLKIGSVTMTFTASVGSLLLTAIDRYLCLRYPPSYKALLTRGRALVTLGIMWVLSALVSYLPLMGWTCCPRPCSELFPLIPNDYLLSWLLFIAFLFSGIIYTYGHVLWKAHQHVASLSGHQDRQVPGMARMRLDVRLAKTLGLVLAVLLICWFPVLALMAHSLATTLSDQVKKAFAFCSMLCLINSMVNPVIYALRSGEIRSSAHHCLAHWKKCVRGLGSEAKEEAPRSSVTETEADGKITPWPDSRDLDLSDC

SMILES	EC50 (human CB2 receptor [2]) [nM]	EC50 (hCB1 [3]) [nM]	EC50 (human CB2 receptor [5]) [nM]	other results
Cc1c(C(=O)c2cccc3ccccc23)c2cccc3c2n1[C@H](CN1CCOCC1)CO3 [WIN 55212-2]				Efficacy against acute and chronic pain [1]: effective against acute and chronic pain
N#Cc1ccnc(-n2nc(C(=O)N[C@H](CO)CC(F)(F)F)c3c2[C@H]2C[C@H]2C3)c1 [Compound 891, (1aS,5aS)-2-(4-Cyano-pyridin-2-yl)-1a,2,5,5a-tetrahydro-1H-2,3-diaza-cyclopropa[a]pentalene-4-carboxylic acid ((S)-3,3,3-trifluoro-1-hydroxymethyl-propyl)-amide]	16.2	11800		
COC(=O)[C@@H](NC(=O)c1nn(-c2c[n+]([O-])ccn2)c2c1C[C@H]1C[C@@H]21)C(C)(C)C [Compound 746, (S)-3,3-Dimethyl-2-{[(1aR,5aR)-2-(4-oxy-pyrazin-2-yl)-1a,2,5,5a-tetrahydro-1H-2,3-diaza-cyclopropa[a]pentalene-4-carbonyl]-amino}-butyric acid methyl ester]	0.7	142		
COc1ccc(C(=O)c2c(C)n(CCN3CCOCC3)c3cc(I)ccc23)cc1 [AM630]				Effect on the reversal of hypersensitivity by AM1241 [4]: inhibited
O=C(N[C@H](CO)C1CCOCC1)c1nn(-c2c[n+]([O-])ccn2)c2c1C[C@H]1C[C@@H]21 [Compound 841, (1aR,5aR)-2-(4-Oxy-pyrazin-2-yl)-1a,2,5,5a-tetrahydro-1H-2,3-diaza-cyclopropa[a]pentalene-4-carboxylic acid [(S)-2-hydroxy-1-(tetrahydro-pyran-4-yl)-ethyl]-amide]	17.5	1140	1.4	
CNC(=O)[C@@H](NC(=O)c1nn(-c2cnccn2)c2c1C[C@H]1C[C@@H]21)C(C)(C)C [Compound 667, (1aR,5aR)-2-Pyrazin-2-yl-1a,2,5,5a-tetrahydro-1H-2,3-diaza-cyclopropa[a]pentalene-4-carboxylic acid [2,2-dimethyl-1-((S)-methylcarbamoyl)-propyl]-amide]	1.53	145	0.3	EC50 (hCB1 [6]): 195 nM
CC(C)(NC(=O)c1nn(-c2c[n+]([O-])ccn2)c2c1C[C@@H]1C[C@H]21)C(F)(F)F [Compound 919, (1aS,5aS)-2-(4-Oxy-pyrazin-2-yl)-1a,2,5,5a-tetrahydro-1H-2,3-diaza-cyclopropa[a]pentalene-4-carboxylic acid (2,2,2-trifluoro-1,1-dimethyl-ethyl)-amide]	2.35		0.2	Analgesic efficacy (tactile allodynia, 50% withdrawal threshold) [7]: robust and sustained analgesic efficacy over 6 hours
COc1ccc2c(c1)c(CCN1CCOCC1)c(C)n2C(=O)c1cccc(Cl)c1Cl [GW405833]				Hypersensitivity to mechanical stimuli ([4]; administered systemically): significantly reverses hypersensitivity to mechanical stimuli
CCNC(=O)[C@@H](NC(=O)c1nn(-c2c[n+]([O-])ccn2)c2c1C[C@H]1C[C@@H]21)C(C)(C)C [Compound 728, (1aR,5aR)-2-(4-Oxy-pyrazin-2-yl)-1a,2,5,5a-tetrahydro-1H-2,3-diaza-cyclopropa[a]pentalene-4-carboxylic acid ((S)-1-ethylcarbamoyl-2,2-dimethyl-propyl)-amide]	1.1	251		
CCCCCc1cc(O)c2c(c1)OC(C)(C)[C@@H]1CCC(C)=C[C@@H]21 [THC]				Efficacy against acute and chronic pain [1]: effective against acute and chronic pain
CC(C)(CO)NC(=O)c1nn(-c2cc(C#N)ccn2)c2c1C[C@H]1C[C@@H]21 [Compound 644, (1aR,5aR)-2-(4-Cyano-pyridin-2-yl)-1a,2,5,5a-tetrahydro-1H-2,3-diaza-cyclopropa[a]pentalene-4-carboxylic acid (2-hydroxy-1,1-dimethyl-ethyl)-amide]	4.69	4470	0.7	
CC(C)(C)NC(=O)c1nn(-c2cnccn2)c2c1C[C@H]1C[C@@H]21 [Compound 593, (1aR,5aR)-2-Pyrazin-2-yl-1a,2,5,5a-tetrahydro-1H-2,3-diaza-cyclopropa[a]pentalene-4-carboxylic acid tert-butylamide]	34.6	1330	7.15	
CNC(=O)[C@@H](NC(=O)c1nn(-c2c[n+]([O-])ccn2)c2c1C[C@@H]1C[C@H]21)C(C)(C)C [Compound 701, (1aS,5aS)-2-(4-Oxy-pyrazin-2-yl)-1a,2,5,5a-tetrahydro-1H-2,3-diaza-cyclopropa[a]pentalene-4-carboxylic acid ((S)-2,2-dimethyl-1-methylcarbamoyl-propyl)-amide]				Ki (hCB1 [8]): 105 nM
CCCCCCC(C)(C)c1ccc([C@@H]2C[C@H](O)CC[C@H]2CCCO)c(O)c1 [CP55,940]				Efficacy against acute and chronic pain [1]: effective against acute and chronic pain
CCCCC/C=C\C/C=C\C/C=C\C/C=C\CCCC(=O)NCCO [anandamide]				Efficacy against acute and chronic pain [1]: effective against acute and chronic pain
CNC(=O)[C@@H](NC(=O)c1nn(-c2c[n+]([O-])ccn2)c2c1C[C@H]1C[C@@H]21)C(C)(C)C [Compound 704, (1aR,5aR)-2-(4-Oxy-pyrazin-2-yl)-1a,2,5,5a-tetrahydro-1H-2,3-diaza-cyclopropa[a]pentalene-4-carboxylic acid ((S)-2,2-dimethyl-1-methylcarbamoyl-propyl)-amide]	0.8	228	0.2	
CC(C)(CO)NC(=O)c1nn(-c2ccc(Cl)cn2)c2c1C[C@H]1C[C@@H]21 [Compound 151, (1aR,5aR)-2-(5-Chloro-pyridin-2-yl)-1a,2,5,5a-tetrahydro-1H-2,3-diaza-cyclopropa[a]pentalene-4-carboxylic acid (2-hydroxy-1,1-dimethyl-ethyl)-amide]	92.1		3.83	EC50 (hCB1 [6]): 72500 nM
CC(C)(CF)NC(=O)c1nn(-c2cc(Cl)ccn2)c2c1C[C@@H]1C[C@H]21 [Compound 897, (1aS,5aS)-2-(4-Chloro-pyridin-2-yl)-1a,2,5,5a-tetrahydro-1H-2,3-diaza-cyclopropa[a]pentalene-4-carboxylic acid (2-fluoro-1,1-dimethyl-ethyl)-amide]	3.79	951		
CC(C)(C)[C@@H](CF)NC(=O)c1nn(-c2c[n+]([O-])ccn2)c2c1C[C@H]1C[C@@H]21 [Compound 918, (1aR,5aR)-2-(4-Oxy-pyrazin-2-yl)-1a,2,5,5a-tetrahydro-1H-2,3-diaza-cyclopropa[a]pentalene-4-carboxylic acid ((S)-1-fluoromethyl-2,2-dimethyl-propyl)-amide]	1.01	437		
